Test results taken from PubChem BioAssay (NCI).
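In this assay, cells in 96-well plates receive the compound at five concentrations for 48 hours. Endpoints are linearly interpolated between the surrounding concentrations. Definition used: TGI = concentration required for complete inhibition of growth.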

Key:
Test in all cases: NCI anticancer screen, dose series, 48 h
K-562 leukemia = system: K-562 leukemia
DLD-1 colon = system: DLD-1 colon
NCI-H226 lung = system: NCI-H226 lung
OVCAR-3 ovarian = system: OVCAR-3 ovarian
OVCAR-8 ovarian = system: OVCAR-8 ovarian
XF 498 CNS = system: XF 498 CNS
OVCAR-4 ovarian = system: OVCAR-4 ovarian
SN12C renal = system: SN12C renal
NCI-H522 lung = system: NCI-H522 lung
HCT-15 colon = system: HCT-15 colon
LOX IMVI melanoma = system: LOX IMVI melanoma
M14 melanoma = system: M14 melanoma
NCI-H460 lung = system: NCI-H460 lung
RXF 393 renal = system: RXF 393 renal
KM12 colon = system: KM12 colon
SK-MEL-28 melanoma = system: SK-MEL-28 melanoma
SK-OV-3 ovarian = system: SK-OV-3 ovarian
SNB-78 CNS = system: SNB-78 CNS
MALME-3M melanoma = system: MALME-3M melanoma
SK-MEL-2 melanoma = system: SK-MEL-2 melanoma
LXFL 529 NSCLC = system: LXFL 529 NSCLC
TK-10 renal = system: TK-10 renal
DMS 114 small cell lung = system: DMS 114 small cell lung
SF-268 CNS = system: SF-268 CNS
UACC-62 melanoma = system: UACC-62 melanoma
SNB-75 CNS = system: SNB-75 CNS
CCRF-CEM leukemia = system: CCRF-CEM leukemia
HT29 colon = system: HT29 colon
HCC-2998 colon = system: HCC-2998 colon
786-0 renal = system: 786-0 renal
HL-60(TB) leukemia = system: HL-60(TB) leukemia
UACC-257 melanoma = system: UACC-257 melanoma
SF-295 CNS = system: SF-295 CNS
MOLT-4 leukemia = system: MOLT-4 leukemia
SF-539 CNS = system: SF-539 CNS
UO-31 renal = system: UO-31 renal
M19-MEL melanoma = system: M19-MEL melanoma
SNB-19 CNS = system: SNB-19 CNS
ACHN renal = system: ACHN renal
HCT-116 colon = system: HCT-116 colon
HOP-18 NSCLC = system: HOP-18 NSCLC
A549 NSCLC = system: A549 NSCLC
U251 CNS = system: U251 CNS
SK-MEL-5 melanoma = system: SK-MEL-5 melanoma

In the case of `O=C(NN1C(=O)C(Cl)C1c1ccccc1Cl)c1ccccc1O` (centres undefined), the TGI (K-562 leukemia) is reported as > 100 µM, the TGI (DLD-1 colon) is reported as > 100 µM and the TGI (NCI-H226 lung) is reported as > 100 µM. For the same compound, the TGI (OVCAR-3 ovarian) was > 100 µM, the TGI (OVCAR-8 ovarian) was > 100 µM and the TGI (XF 498 CNS) was > 100 µM. The TGI (OVCAR-4 ovarian) was > 100 µM, the TGI (SN12C renal) was > 100 µM and the TGI (NCI-H522 lung) was > 100 µM. For the same compound, the TGI (HCT-15 colon) was > 100 µM, the TGI (LOX IMVI melanoma) was > 100 µM and the TGI (M14 melanoma) was > 100 µM. For the same compound, the TGI (NCI-H460 lung) was > 100 µM, the TGI (RXF 393 renal) was 88.2 µM and the TGI (KM12 colon) was > 100 µM. For the same compound, the TGI (SK-MEL-28 melanoma) was > 100 µM, the TGI (SK-OV-3 ovarian) was > 100 µM and the TGI (SNB-78 CNS) was > 100 µM. For the same compound, the TGI (MALME-3M melanoma) was > 100 µM, the TGI (SK-MEL-2 melanoma) was > 100 µM and the TGI (LXFL 529 NSCLC) was > 100 µM. The TGI (TK-10 renal) was > 100 µM, the TGI (DMS 114 small cell lung) was > 100 µM and the TGI (SF-268 CNS) was > 100 µM. For the same compound, the TGI (UACC-62 melanoma) was > 100 µM, the TGI (SNB-75 CNS) was > 100 µM and the TGI (CCRF-CEM leukemia) was > 100 µM. The TGI (HT29 colon) was > 100 µM, the TGI (HCC-2998 colon) was > 100 µM and the TGI (786-0 renal) was > 100 µM. The TGI (HL-60(TB) leukemia) was > 100 µM, the TGI (UACC-257 melanoma) was > 100 µM and the TGI (SF-295 CNS) was > 100 µM. For the same compound, the TGI (MOLT-4 leukemia) was > 100 µM, the TGI (SF-539 CNS) was > 100 µM and the TGI (UO-31 renal) was > 100 µM. The TGI (M19-MEL melanoma) was > 100 µM, the TGI (SNB-19 CNS) was > 100 µM and the TGI (ACHN renal) was > 100 µM. The TGI (HCT-116 colon) was > 100 µM, the TGI (HOP-18 NSCLC) was > 100 µM and the TGI (A549 NSCLC) was > 100 µM. The TGI (U251 CNS) was > 100 µM and the TGI (SK-MEL-5 melanoma) was > 100 µM.
